Experimental data taken from patent US20220169660A1, “CYCLIC AMINO-PYRAZINECARBOXAMIDE COMPOUNDS AND USES THEREOF” (SILVERBACK THERAPEUTICS, INC., priority 2019, published 2022).

Key:
[1] = test system: HEK293 SMAD2p luciferase reporter cells transfected to stably express full length human LRRC15; assay: Cell reporter assay of anti-LRRC15 antibody drug conjugates (SMAD2p luciferase); format: cell-based; details: linker-payload conjugated to anti-LRRC15 antibody; human TGFβ1 1.6 ng/ml; absolute EC50
Source text: The linker payloads in Table 8 were covalently attached to an anti-LRRC15 antibody. The LRRC15 antibody is the murine M25 antibody or a humanized variant thereof (see PCT Application Publication No. WO 2017/095805, incorporated herein by reference in its entirety). Conjugation to the linker-payload is via the interchain disulfides. The antibodies have either a wild-type Fc domain or a null Fc domain. The Fcnull mutations for human IgG1 are L234A, L236A, G237A, and K322A and the Fcnull mutations for murine IgG2a are L234A, L236A, G237A, K322A, and P329G; numbering by EU index.
The resultant antibody drug conjugates were tested via a cell reporter assay. HEK293 SMAD2p luciferase reporter cells transfected to stably express full length human LRRC15 were seeded in 96 well plates at 40,000 cells/well in an assay media of MEM +0.5% FBS, 1% NEAA, 1% NaPyr & 1% Pen/Strep. Conjugates and controls were added to wells in a dose titration ranging from 500 nM to 0.03 nM. After 24 hours of culture at 37° C. in a 5% CO2 environment human TGFβ1 was added (PeproTech Inc.) to a final concentration of 1.6 ng/ml followed by an additional 18 hour of culture. Luciferase Steady Glo reagent (Promega Corporation) was added as recommended by manufacturer. After incubating 10 minutes with shaking, SMAD2p activity was determined by measuring luminescence with an Envision Plate Reader (Perkin-Elmer Inc.) and an absolute EC50 was determined using Prism Software v8.01 (GraphPad Inc.).

[2] = test system: TGFβ/SMAD Singling Pathway SBE reporter cell line; assay: TGFβ reporter assay (in vitro small molecule screening); format: cell-based; details: SBE luciferase reporter cells, TGFβ stimulation, 18 h, luminescence
Method: TGFβ/SMAD Singling Pathway SBE reporter cell line was obtained from BPS Bioscience. Cells were passed, expanded, and stored in liquid nitrogen as per the supplier's instructions with the exception that growth media is changed to DMEM-C with Geneticin (DMEM supplemented with 10% fetal bovine serum, 1×NEAA, 1 mM Pyruvate, 2 mM glutamine, 50 μg/mL penicillin, 50 U/mL streptomycin and 400 μg/mL of Geneticin). The assay media was MEM supplemented with […] fetal bovine serum, 1×NEAA, 1 mM Pyruvate, 50 μg/mL penicillin and 50 U/mL streptomycin.
Test samples (at desired concentrations diluted in assay media) were added to a 96-well assay plate, 20 μL per well. Reporter cells were harvested from the tissue culture flasks by incubation in small quantity of PBS at 37° C. for two minutes after the media in the flask is removed and cells rinsed with PBS. Cells were counted and diluted in the assay media at approximately 0.5×10^6 cells/mL and then 80 μL/well of cells were added to the assay plate containing the 20 μL/well of test samples (or media only), and incubated for approximately 5-6 hours at 37° C. in a 5% CO2 humidified incubator. After that time, 15 μL of TGFβ diluted to 12 ng/mL in the assay media was added to the plate. Controls included TGFβ titration (from 50 to 0 ng/mL) without inhibitors, and media only (without cells, inhibitor or TGFβ). Plates were incubated at 37° C. in a 5% CO2 humidified incubator for 18 h. Luciferase substrate solution is subsequently added at 100 μL per well, incubated in the dark at room temperature for 15 min, and luminescence is measured using a luminometer. EC50 values and curve fits were obtained using Prism (GraphPad Software).

TGFBR2 = biological target: T1, TGFBR2 (Homo sapiens, UniProt P37173); assay: TGFBR2 RBC enzyme assay (Reaction Biology Corp.); format: biochemical
T1 construct: purchased Reaction Biology Corp
T1 sequence (P37173 23-567): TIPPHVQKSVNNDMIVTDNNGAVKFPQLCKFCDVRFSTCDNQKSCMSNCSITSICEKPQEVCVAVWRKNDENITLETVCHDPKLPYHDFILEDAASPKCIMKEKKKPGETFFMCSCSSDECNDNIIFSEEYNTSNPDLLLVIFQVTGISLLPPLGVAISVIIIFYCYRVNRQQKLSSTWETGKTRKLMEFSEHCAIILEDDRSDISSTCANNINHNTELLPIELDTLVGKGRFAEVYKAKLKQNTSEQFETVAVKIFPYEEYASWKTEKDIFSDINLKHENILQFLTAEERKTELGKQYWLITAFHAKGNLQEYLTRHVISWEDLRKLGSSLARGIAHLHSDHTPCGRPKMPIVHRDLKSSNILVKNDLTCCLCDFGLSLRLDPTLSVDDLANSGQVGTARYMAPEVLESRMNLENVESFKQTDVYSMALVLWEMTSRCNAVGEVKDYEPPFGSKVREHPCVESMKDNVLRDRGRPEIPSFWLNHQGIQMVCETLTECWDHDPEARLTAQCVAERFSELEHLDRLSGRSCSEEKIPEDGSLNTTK
Method: Compounds of the disclosure were assayed by Reaction Biology Corp. using the TGFBR2 RBC enzyme assay.

Molecule	EC50 [1] [µM]	EC50 [2] [µM]	EC50 (TGFBR2) [µM]
4-((S)-2-((S)-2-(6-(2,5-dioxo-2,5-dihydro-1H-pyrrol-1-yl)hexanamido)-3-methylbutanamido)-5-ureidopentanamido)benzyl (3-((2^5-amino-6-methyl-3-oxo-10-oxa-4,6-diaza-2(2,6)-pyrazina-5(3,4)-pyridina-1(1,3)-benzenacyclodecaphane-15-yl)oxy)propyl)carbamate [Compound B-16]	0.001 to 1		
CN1C[C@@H](CN)Oc2ccccc2-c2cnc(N)c(n2)C(=O)Nc2cnccc21 [Compound 60, (R)-2^5-amino-8-(aminomethyl)-6-methyl-9-oxa-4,6-diaza-2(2,6)-pyrazina-5(3,4)-pyridina-1(1,2)-benzenacyclononaphan-3-one]		1 to 5	> 1
CN1CCCOc2cc(ccc2OCCCN)-c2cnc(N)c(n2)C(=O)Nc2cnccc21 [Compound 61, 2^5-amino-1^4-(3-aminopropoxy)-6-methyl-10-oxa-4,6-diaza-2(2,6)-pyrazina-5(3,4)-pyridina-1(1,3)-benzenacyclodecaphan-3-one]		0.001 to 1	0.001 to 0.1
CN1CCCOc2cc(ccc2CCCCN)-c2cnc(N)c(n2)C(=O)Nc2cnccc21 [Compound 62, 2^5-amino-1^4-(4-aminobutyl)-6-methyl-10-oxa-4,6-diaza-2(2,6)-pyrazin-5(3,4)-pyridina-1(1,3)-benzenacyclodecaphan-3-one]		0.001 to 1	0.001 to 0.1
CN1CCCCc2cc(ccc2OCCCN)-c2cnc(N)c(n2)C(=O)Nc2cnccc21 [Compound 63, 2^5-amino-1^4-(3-aminopropxy)-6-methyl-4,6-diaza-2(2,6)-pyrazina-5(3,4)-pyridina-1(1,3)-benzenacyclodecaphan-3-one]		0.001 to 1	0.001 to 0.1
CN1CCOc2ccc(OCCCN)cc2-c2cnc(N)c(n2)C(=O)Nc2cnccc21 [Compound 64, 2^5-amino-1^5-(3-aminopropoxy)-6-methyl-9-oxa-4,6-diaza-2(2,6)-pyrazina-5(3,4)-pyridina-1(1,2)-benzenacyclononaphan-3-one]		0.001 to 1	0.001 to 0.1
CN1CCOc2cc(OCCCN)ccc2-c2cnc(N)c(n2)C(=O)Nc2cnccc21 [Compound 65, 2^5-amino-1^4-(3-aminopropoxy)-6-methyl-9-oxa-4,6-diaza-2(2,6)-pyrazina-5(3,4)-pyridina-1(1,2)-benzenacyclononaphan-3-one]		0.001 to 1	0.001 to 0.1
CC(C)[C@H](NC(=O)CCOCCOCCOCCOCCN1C(=O)C=CC1=O)C(=O)N[C@@H](CCCNC(N)=O)C(=O)Nc1ccc(COC(=O)NCCCOc2ccc3cc2OCCCN(C)c2ccncc2NC(=O)c2nc-3cnc2N)cc1 [Compound B-61]	0.001 to 1		
CC(C)[C@H](NC(=O)CCOCCOCCOCCOCCN1C(=O)C=CC1=O)C(=O)N[C@@H](CCCNC(N)=O)C(=O)Nc1ccc(COC(=O)NCCCCc2ccc3cc2CCCCN(C)c2ccncc2NC(=O)c2nc-3cnc2N)cc1 [Compound B-62]	0.001 to 1		
CC(C)[C@H](NC(=O)CCOCCOCCOCCOCCN1C(=O)C=CC1=O)C(=O)N[C@@H](CCCNC(N)=O)C(=O)Nc1ccc(COC(=O)NCCCOc2ccc3cc2CCCCN(C)c2ccncc2NC(=O)c2nc-3cnc2N)cc1 [Compound B-63]	0.001 to 1		
CC(C)[C@H](NC(=O)CCOCCOCCOCCOCCN1C(=O)C=CC1=O)C(=O)N[C@@H](CCCNC(N)=O)C(=O)Nc1ccc(COC(=O)NCCCOc2ccc3c(c2)-c2cnc(N)c(n2)C(=O)Nc2cnccc2N(C)CCO3)cc1 [Compound B-64]	0.001 to 1		
CC(C)[C@H](NC(=O)CCOCCOCCOCCOCCN1C(=O)C=CC1=O)C(=O)N[C@@H](CCCNC(N)=O)C(=O)Nc1ccc(COC(=O)NCCCOc2ccc3c(c2)OCCN(C)c2ccncc2NC(=O)c2nc-3cnc2N)cc1 [Compound B-65]	0.001 to 1		
